Among the test systems are 786-0 renal; A498 renal; A549 NSCLC; CCRF-CEM leukemia; HCT-15 colon; HOP-92 NSCLC; IGROV1 ovarian; K-562 leukemia; LOX IMVI melanoma; NCI-H522 lung; OVCAR-3 ovarian; RXF 393 renal; SF-295 CNS; SN12C renal; SNB-19 CNS; SNB-75 CNS; SW-620 colon; UACC-62 melanoma; RPMI-8226 leukemia.
Assay in all cases: DTP human tumour cell line panel, 48 h

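All cell lines were grown in 96-well plates and treated with compound for 48 hours. TGI marks complete inhibition of growth.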

For six compounds, TGI results are on record in PubChem BioAssay (NCI).

Take `COc1cc(S(=O)(=O)Nc2nc(-c3ccc(N4C(=O)/C(=C/C=C/c5ccccc5)N=C4c4ccccc4)cc3)cs2)ccc1Cl`: the TGI in the experiment on 786-0 renal, in the experiment on A498 renal, with A549 NSCLC, in the experiment on CCRF-CEM leukemia, in the experiment with HCT-15 colon and with HOP-92 NSCLC was > 100 µM each time. Besides, the TGI in the experiment on IGROV1 ovarian, with K-562 leukemia, with LOX IMVI melanoma, in the experiment with NCI-H522 lung, in the experiment on OVCAR-3 ovarian and in the experiment on RXF 393 renal was > 100 µM in each case. The total growth inhibition concentration (TGI) in the experiment with SF-295 CNS, with SN12C renal, in the experiment with SNB-19 CNS, in the experiment with SNB-75 CNS, in the experiment on SW-620 colon and in the experiment with UACC-62 melanoma was > 100 µM in each case.
For `CC(=O)[C@@H]1C/C(=C\OCc2ccccc2)O[C@H]1C`, the concentration for total growth inhibition (TGI) with 786-0 renal, with A498 renal, in the experiment on A549 NSCLC, in the experiment on HCT-15 colon, in the experiment with HOP-92 NSCLC and with IGROV1 ovarian was > 100 µM each time. The TGI with K-562 leukemia, in the experiment on LOX IMVI melanoma, in the experiment on NCI-H522 lung, in the experiment with OVCAR-3 ovarian, in the experiment with RPMI-8226 leukemia and in the experiment on RXF 393 renal was > 100 µM each time. The TGI with SF-295 CNS, in the experiment on SN12C renal, in the experiment with SNB-19 CNS, in the experiment on SNB-75 CNS and with SW-620 colon was > 100 µM each time.
With `Cc1cc(C)c(S(=O)(=O)N2CCCN(S(=O)(=O)c3c(C)cc(C)cc3C)OCCCO2)c(C)c1`, the concentration for total growth inhibition (TGI) with 786-0 renal, in the experiment on A498 renal, with A549 NSCLC, in the experiment on CCRF-CEM leukemia, in the experiment with HCT-15 colon and in the experiment with HOP-92 NSCLC was > 100 µM throughout. Moreover, the TGI in the experiment with IGROV1 ovarian, with K-562 leukemia, in the experiment with LOX IMVI melanoma, with NCI-H522 lung, with OVCAR-3 ovarian and in the experiment with RXF 393 renal was > 100 µM each time. Also, the TGI with SF-295 CNS, in the experiment on SN12C renal, in the experiment on SNB-19 CNS, in the experiment on SNB-75 CNS, in the experiment on SW-620 colon and with UACC-62 melanoma was > 100 µM in each case.
Consider `COc1ccc(S(=O)(=O)NC(CCC(=O)NN)C(=O)NN)cc1` (centres undefined), for which the TGI in the experiment on 786-0 renal, with A498 renal, in the experiment with A549 NSCLC, with CCRF-CEM leukemia, in the experiment on HCT-15 colon and with HOP-92 NSCLC was > 100 µM in each case. Moreover, the concentration for total growth inhibition (TGI) in the experiment with IGROV1 ovarian, in the experiment on K-562 leukemia, in the experiment with LOX IMVI melanoma, with NCI-H522 lung, with OVCAR-3 ovarian and in the experiment with RPMI-8226 leukemia was > 100 µM in each case. Further, the TGI with SF-295 CNS, with SN12C renal, in the experiment with SNB-19 CNS, in the experiment on SNB-75 CNS, in the experiment on SW-620 colon and in the experiment on UACC-62 melanoma was > 100 µM each time.
Take `C/C(=N\n1c(Cc2ccccc2)n[nH]c1=O)c1ccccc1`: the TGI with 786-0 renal, with A498 renal, in the experiment with A549 NSCLC, with CCRF-CEM leukemia, in the experiment with HCT-15 colon and in the experiment with HOP-92 NSCLC was > 100 µM in each case. Besides, the TGI in the experiment with IGROV1 ovarian, with K-562 leukemia, in the experiment with LOX IMVI melanoma, in the experiment on NCI-H522 lung, in the experiment on RPMI-8226 leukemia and with RXF 393 renal was > 100 µM each time. Besides, the TGI with SN12C renal, in the experiment with SNB-19 CNS, in the experiment on SW-620 colon and with UACC-62 melanoma was > 100 µM each time.
As to `C=CCN1C(=O)/C(=C\c2cc(C(C)(C)C)c(O)c(C(C)(C)C)c2)NC1=S`, the TGI in the experiment on 786-0 renal is 55.7 µM; in the experiment with A498 renal, 90.8 µM; with A549 NSCLC, > 100 µM; with CCRF-CEM leukemia, 20.4 µM; in the experiment on HCT-15 colon, > 100 µM; with HOP-92 NSCLC it was > 100 µM. Also, the total growth inhibition concentration (TGI) is > 100 µM in the experiment with IGROV1 ovarian; > 100 µM with K-562 leukemia; 31.6 µM with LOX IMVI melanoma; 27.8 µM in the experiment on NCI-H522 lung; 39.6 µM with OVCAR-3 ovarian; > 100 µM in the experiment on RPMI-8226 leukemia. The TGI in the experiment with SF-295 CNS was 68.3 µM; with SN12C renal, > 100 µM; in the experiment with SNB-19 CNS, > 100 µM; with SW-620 colon, > 100 µM; in the experiment with UACC-62 melanoma, 33.1 µM.
